Results published in ChEMBL document CHEMBL1201862, “PubChem BioAssay data set” (2004).
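48-hour exposure; five concentrations; linearly interpolated endpoints. GI50 is the concentration that inhibits growth by half.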 The source made the active and inactive calls. Rule as the data show it: active = GI50 up to about 1.1 µM and inactive = higher.

How the values were obtained:
Experiment in all cases: NCI anticancer screen, dose series, 48 h
786-0 = tested on: 786-0
CCRF-CEM = tested on: CCRF-CEM
HCC 2998 = tested on: HCC 2998
MOLT-4 = tested on: MOLT-4
Malme-3M = tested on: Malme-3M
NCI-H23 = tested on: NCI-H23
NCI-H460 = tested on: NCI-H460
NCI-H522 = tested on: NCI-H522
OVCAR-4 = tested on: OVCAR-4
OVCAR-5 = tested on: OVCAR-5
SF-539 = tested on: SF-539
SN12C = tested on: SN12C
SNB-75 = tested on: SNB-75
TK-10 = tested on: TK-10
HL-60 = tested on: HL-60
A498 = tested on: A498

Measured: GI50

CCCCN(CCCC)CCCn1cnc2ncccc2c1=O
inactive: 786-0 > 100 µM | CCRF-CEM > 100 µM | HCC 2998 > 100 µM | MOLT-4 > 100 µM | Malme-3M > 100 µM | NCI-H23 > 100 µM | NCI-H460 > 100 µM | NCI-H522 > 100 µM | OVCAR-4 > 100 µM | OVCAR-5 > 100 µM | SF-539 > 100 µM | SN12C > 100 µM | SNB-75 > 100 µM | TK-10 > 100 µM

CC(C)(C)C(=O)Nc1ccccc1Br
inactive: 786-0 > 100 µM | CCRF-CEM > 100 µM | HCC 2998 > 100 µM | HL-60 > 100 µM | MOLT-4 > 100 µM | Malme-3M > 100 µM | NCI-H460 > 100 µM | OVCAR-4 > 100 µM | OVCAR-5 > 100 µM | SN12C > 100 µM | SNB-75 > 100 µM | TK-10 > 100 µM

COc1c2c(cc3c1C(=O)Cc1ccc4c(c1CN(C)CC3)OCO4)OCO2
inactive: 786-0 > 100 µM | CCRF-CEM 70.5 µM | HCC 2998 > 100 µM | HL-60 30.1 µM | MOLT-4 36.7 µM | Malme-3M > 100 µM | NCI-H23 > 100 µM | NCI-H460 67.3 µM | NCI-H522 > 100 µM | OVCAR-4 75.5 µM | OVCAR-5 29.3 µM | SF-539 > 100 µM | SN12C > 100 µM | SNB-75 26.4 µM | TK-10 > 100 µM

CCCN(CCC)c1c([N+](=O)[O-])cc(C(N)=O)cc1[N+](=O)[O-]
inactive: 786-0 > 100 µM | CCRF-CEM 39.1 µM | HCC 2998 91 µM | HL-60 27.8 µM | MOLT-4 37 µM | Malme-3M 62.1 µM | NCI-H23 > 100 µM | NCI-H460 68.2 µM | NCI-H522 36.7 µM | OVCAR-4 > 100 µM | OVCAR-5 > 100 µM | SF-539 > 100 µM | SN12C > 100 µM | SNB-75 > 100 µM | TK-10 > 100 µM

Cc1nc2c(n1CCC(C)C)C(=O)c1ccccc1C2=O
inactive: 786-0 24.9 µM | CCRF-CEM 13.6 µM | HCC 2998 40.9 µM | HL-60 6 µM | MOLT-4 8.26 µM | Malme-3M 24.1 µM | NCI-H23 22.3 µM | NCI-H460 6.08 µM | NCI-H522 20.5 µM | OVCAR-4 36.6 µM | SF-539 12 µM | SN12C 23.2 µM | SNB-75 20.1 µM | TK-10 41.2 µM

CC12CCC(=O)N1c1ccc([N+](=O)[O-])cc1N2 (centres undefined)
inactive: 786-0 > 100 µM | A498 > 100 µM | CCRF-CEM > 100 µM | HL-60 92.9 µM | MOLT-4 83.4 µM | Malme-3M > 100 µM | NCI-H23 > 100 µM | NCI-H522 > 100 µM | OVCAR-4 > 100 µM | SF-539 > 100 µM | SN12C > 100 µM | SNB-75 > 100 µM

N#CC(C#N)=c1c2nsnc2c(=C(C#N)C#N)c2nsnc12
inactive: 786-0 5.16 µM | HCC 2998 1.77 µM | HL-60 2.27 µM | Malme-3M 1.65 µM | NCI-H23 2.01 µM | NCI-H460 2.08 µM | NCI-H522 1.96 µM | OVCAR-4 1.96 µM | OVCAR-5 1.89 µM | SF-539 1.93 µM | SNB-75 1.51 µM | TK-10 16 µM

Cc1cc2c(=O)c3ccc(Cl)cc3[nH]c2c(C(=O)O)c1C
inactive: 786-0 > 100 µM | CCRF-CEM > 100 µM | HCC 2998 > 100 µM | MOLT-4 > 100 µM | Malme-3M > 100 µM | NCI-H23 > 100 µM | NCI-H460 > 100 µM | NCI-H522 73.8 µM | OVCAR-4 > 100 µM | OVCAR-5 > 100 µM | SF-539 > 100 µM | SN12C > 100 µM | SNB-75 > 100 µM | TK-10 > 100 µM

O=[N+]([O-])C(=C(c1ccccc1)c1ccccc1)[N+](=O)[O-]
inactive: 786-0 14.5 µM | A498 14.8 µM | CCRF-CEM 2.93 µM | HCC 2998 11.4 µM | HL-60 3.32 µM | MOLT-4 3.32 µM | NCI-H23 17.4 µM | NCI-H460 5.57 µM | NCI-H522 15.4 µM | OVCAR-4 14.5 µM | OVCAR-5 19.9 µM | SF-539 13.6 µM | SN12C 15.5 µM | SNB-75 10.2 µM | TK-10 18.6 µM

COc1ccc2c(C(=O)O)cc3ccccc3c2c1OC
inactive: 786-0 15.7 µM | A498 18.8 µM | CCRF-CEM 24.8 µM | HCC 2998 21.2 µM | HL-60 27.1 µM | MOLT-4 32.9 µM | Malme-3M 21.9 µM | NCI-H23 22.2 µM | NCI-H522 13.8 µM | OVCAR-5 19.1 µM | SF-539 23.7 µM | SN12C 20.9 µM | SNB-75 28.4 µM | TK-10 19.1 µM

O=C(NCC#CCO)C(F)(F)F
inactive: 786-0 > 100 µM | A498 > 100 µM | HCC 2998 > 100 µM | MOLT-4 > 100 µM | Malme-3M > 100 µM | NCI-H23 > 100 µM | NCI-H460 > 100 µM | NCI-H522 > 100 µM | OVCAR-4 > 100 µM | OVCAR-5 > 100 µM | SF-539 > 100 µM | SN12C > 100 µM | TK-10 > 100 µM

CCOC(=O)CCn1cnc(N)n1
inactive: 786-0 > 100 µM | CCRF-CEM > 100 µM | HCC 2998 > 100 µM | HL-60 > 100 µM | MOLT-4 > 100 µM | Malme-3M > 100 µM | NCI-H23 > 100 µM | NCI-H460 > 100 µM | NCI-H522 > 100 µM | OVCAR-4 > 100 µM | OVCAR-5 > 100 µM | SF-539 > 100 µM | SN12C > 100 µM | SNB-75 > 100 µM | TK-10 > 100 µM

Cc1ccccc1NC(=O)C(=O)c1c(O)c2ccc(O)cc2oc1=O
inactive: 786-0 > 100 µM | A498 > 100 µM | CCRF-CEM > 100 µM | HL-60 > 100 µM | MOLT-4 > 100 µM | Malme-3M > 100 µM | NCI-H23 > 100 µM | NCI-H460 > 100 µM | NCI-H522 > 100 µM | OVCAR-4 > 100 µM | SN12C > 100 µM | SNB-75 > 100 µM | TK-10 > 100 µM

COc1ccc(-c2onc(-c3ccc([N+](=O)[O-])cc3)c2C2=NCCN2)cc1
inactive: 786-0 17 µM | CCRF-CEM > 100 µM | HCC 2998 > 100 µM | HL-60 > 100 µM | MOLT-4 > 100 µM | Malme-3M > 100 µM | NCI-H23 > 100 µM | NCI-H460 45.9 µM | NCI-H522 > 10 µM | OVCAR-4 60.1 µM | OVCAR-5 > 100 µM | SF-539 38 µM | SN12C 67.5 µM | SNB-75 20.9 µM

COCOCc1cc(OCc2ccccc2)c(OC)cc1Br
inactive: 786-0 > 100 µM | A498 > 100 µM | CCRF-CEM > 100 µM | Malme-3M > 100 µM | NCI-H23 > 100 µM | NCI-H460 > 100 µM | OVCAR-4 > 100 µM | OVCAR-5 > 100 µM | SF-539 > 100 µM | SN12C > 100 µM | SNB-75 > 100 µM | TK-10 > 100 µM
